Groups on a side chain read outwards from the residue. No end group written: not given here. Glu2C18 = not defined here
What was measured:
[1] = molecular target: T1, GPIIb/IIIa on resting platelets (UniProt P08514 32-1039; P05106 27-788, limits assumed); assay: flow cytometry, fluorescence-labeled antibody on platelets, PEG vesicles added
T1 construct: whole, on cells; also called resting GPIIb/IIIa; normal platelets

[2] = molecular target: T1, GPIIb/IIIa on resting platelets; assay: flow cytometry, fluorescence-labeled antibody on platelets, PBS added
[3] = molecular target: T1, GPIIb/IIIa on resting platelets; assay: flow cytometry, fluorescence-labeled antibody on platelets, H12-PEG(PEG) vesicles added
[4] = test system: platelets; assay: Aggregation test with platelets, vesicles as carrier: platelet adhesion on collagen surface under flow in thrombocytopenic blood; format: cell-based; settings: for SC of platelets (%): thrombocytopenic blood, platelets 5.0×10^4/μl, collagen surface, shear 150 s^-1, H12-PEG-Glu2C18 0.3 mol %
Experimental: Platelets were fluorescence-labeled with DiOC6, and the H12-PEG(PEG) vesicle (1.5 wt %, 200 μl) was added to 5 ml of the thrombocytopenic blood ([platelets]=5.0×10^4/μl), allowed to stand (37° C., 10 min), allowed to flow on the collagen surface at a rate of shear of 150 s^−1, and then observed under a fluorescence microscope. The SC of platelets on the surface was analyzed by Argus-20. When H12-PEG vesicle (H12-PEG-Glu2C18: 0.3 mol %) or PEG vesicle was added to the thrombocytopenic blood ([platelets]=5.0×10^4/μl) and allowed to flow on the collagen surface, the SC was increased in the H12-PEG vesicle-added system, in comparison with the PEG vesicle-added system (Table 1).

[5] = Retention of H12-PEG-Glu2C18 in phospholipid vesicles (1H-NMR molar ratio after shaking); format: physicochemical; settings: diluted 30 times with PBS, shaken at 37° C. for 12 hours
Experimental: In this connection, the prepared phospholipid vesicles (H12-PEG vesicles, 1.8 wt %) were diluted 30 times with PBS and shaken at 37° C. for 12 hours, and then the vesicles were precipitated by centrifugation (33000 rpm, 1 h) and dispersed, followed by freeze drying, and the resulting powder was subjected to ^1H-NMR measurement.

[6] = test system: resting platelets; assay: Binding test to resting platelets (flow cytometry aggregation ratio); format: cell-based; settings: resting platelets 2.0×10^4/μl, beads 1.0×10^5/μl, 37° C., 30 min
Experimental: (§1) Resting platelets (2.0×10^4/μl) were mixed with 1.0×10^5/μl of each of LB, H12-LB and CGGRGDF-LB [LB bound with a peptide having an RGD sequence (Arg-Gly-Asp)], followed by shaking (37° C., 30 min), and the aggregation ratio in each case was evaluated by flow cytometry. […] Based on this, it was confirmed that H12-LB hardly agglutinate to resting platelets when compared with CGGRGDF-LB.

[7] = test system: platelets; assay: Aggregation test with platelets, latex beads as carrier: platelet adhesion on collagen-immobilized surface under flow in thrombocytopenia model blood; format: cell-based; settings: after 180 seconds
Experimental: (§2) A thrombocytopenia model blood was prepared by passing whole blood-through a leukocyte removing filter for leukocyte depleted preparations (NEOIJ, Nihon Pall) by gravity, and adjusting the platelet concentration to 2.0×10^4/μl by adding platelet rich plasma (PRP) (an automatic blood cell counter K-4500, Sysmex, Kobe).
(§3) H12-LB (1.0×10^5 particles/μl) was added to 5 ml of the thrombocytopenia model blood, allowed to stand (37° C., 10 min), flowed on a collagen-immobilized surface using a pump (rate of shear 150 s^−1), and then observed under a fluorescence microscope or through a CCD camera. An adhesion occupying ratio [surface coverage (hereinafter referred to as “SC”)] of micro particles to each surface was measured using an image analyzer (Argus-50, Hamamatsu Photonics).
Only platelets were subjected to fluorescence labeling [3,3′-dihexyloxacarbocyanine iodide (DiOC6)], and their adhesion behavior was periodically observed. As a result, SC of platelets on the surface increased with the lapse of time and was 3.1±0.4% after 180 seconds (FIG. 1: □, control). […] Thus, when H12-LB was added instead of LB, the platelet adhesion was further amplified than the case of the LB addition, and was 5.1±0.3% after 180 seconds, or amplified about 1.7 times than the control (FIG. 1: ∘).

[8] = test system: platelets activated by adhering to collagen; assay: Adhesion behavior of FITC-labeled latex beads on collagen-immobilized surface under flow in thrombocytopenia model blood; format: cell-based
Experimental: as §2, §3
In addition, the number of H12-LB bound to the surface was inhibited when the platelet concentration was 0.2×10^4/μl (FIG. 2: •), and were hardly seen in the case of LB (FIG. 2: □).

[9] = test system: platelets; assay: Interaction with platelets, vesicles as carrier (flow cytometry, PAC-1 and vesicle binding); format: cell-based; settings: thrombocytopenia plasma, platelets 5.0×10^4/μl, 30 min, 37° C.
Experimental: After 80 μl of thrombocytopenia plasma ([platelets]=5.0×10^4/μl) was prepared, fluorescence-labeled H12-PEG(PEG) vesicles (8.2 μM, 20 μl) or a fluorescence-labeled antibody and H12-PEG(PEG) vesicles (0.082 μM, 20 μl) were added thereto, followed by stirring (30 min, 37° C.). The mixture was subsequently subjected to formaldehyde (3.7%) fixation, diluted 10 times and then measured using flow cytometry.

[10] = molecular target: T1, GPIIb/IIIa on resting platelets; assay: flow cytometry, beads (1.0×10^5/µl) mixed with resting platelets (2.0×10^4/µl), 37° C., 30 min
Experimental: as §1, with “(2.0×10⁴/μl)” for “(2.0×10^4/μl)”, “1.0×10⁵/μl” for “1.0×10^5/μl”

T1 sequence (P08514 32-1039 limits assumed, chain 1 of 2): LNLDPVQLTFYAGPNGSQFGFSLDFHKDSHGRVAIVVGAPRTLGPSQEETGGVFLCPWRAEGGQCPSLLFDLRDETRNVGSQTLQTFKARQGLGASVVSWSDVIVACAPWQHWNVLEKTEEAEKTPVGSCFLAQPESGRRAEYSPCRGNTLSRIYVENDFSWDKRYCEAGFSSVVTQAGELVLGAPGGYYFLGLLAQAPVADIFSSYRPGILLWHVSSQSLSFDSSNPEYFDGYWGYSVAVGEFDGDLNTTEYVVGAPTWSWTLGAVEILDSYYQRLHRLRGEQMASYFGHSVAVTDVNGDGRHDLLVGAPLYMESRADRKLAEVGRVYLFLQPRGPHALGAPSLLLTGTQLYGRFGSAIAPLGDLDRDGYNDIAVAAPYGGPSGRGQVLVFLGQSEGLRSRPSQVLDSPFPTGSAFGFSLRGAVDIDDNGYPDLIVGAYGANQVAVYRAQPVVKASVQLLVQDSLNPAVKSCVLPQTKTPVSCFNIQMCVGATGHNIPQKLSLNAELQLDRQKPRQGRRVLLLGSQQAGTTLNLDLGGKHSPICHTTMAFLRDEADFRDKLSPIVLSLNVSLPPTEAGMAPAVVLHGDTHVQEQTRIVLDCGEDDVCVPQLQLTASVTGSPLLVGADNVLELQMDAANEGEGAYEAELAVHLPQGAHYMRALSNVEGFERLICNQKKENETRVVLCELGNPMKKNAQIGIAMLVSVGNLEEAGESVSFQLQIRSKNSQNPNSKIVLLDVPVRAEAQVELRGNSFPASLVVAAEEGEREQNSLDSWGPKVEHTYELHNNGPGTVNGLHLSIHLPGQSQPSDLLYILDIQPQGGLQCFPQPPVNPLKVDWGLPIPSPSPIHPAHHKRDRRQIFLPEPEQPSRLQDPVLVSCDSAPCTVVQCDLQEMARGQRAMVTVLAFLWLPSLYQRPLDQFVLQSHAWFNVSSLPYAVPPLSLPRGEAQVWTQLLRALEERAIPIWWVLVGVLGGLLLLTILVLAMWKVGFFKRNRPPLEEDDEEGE
T1 sequence (P05106 27-788 limits assumed, chain 2 of 2): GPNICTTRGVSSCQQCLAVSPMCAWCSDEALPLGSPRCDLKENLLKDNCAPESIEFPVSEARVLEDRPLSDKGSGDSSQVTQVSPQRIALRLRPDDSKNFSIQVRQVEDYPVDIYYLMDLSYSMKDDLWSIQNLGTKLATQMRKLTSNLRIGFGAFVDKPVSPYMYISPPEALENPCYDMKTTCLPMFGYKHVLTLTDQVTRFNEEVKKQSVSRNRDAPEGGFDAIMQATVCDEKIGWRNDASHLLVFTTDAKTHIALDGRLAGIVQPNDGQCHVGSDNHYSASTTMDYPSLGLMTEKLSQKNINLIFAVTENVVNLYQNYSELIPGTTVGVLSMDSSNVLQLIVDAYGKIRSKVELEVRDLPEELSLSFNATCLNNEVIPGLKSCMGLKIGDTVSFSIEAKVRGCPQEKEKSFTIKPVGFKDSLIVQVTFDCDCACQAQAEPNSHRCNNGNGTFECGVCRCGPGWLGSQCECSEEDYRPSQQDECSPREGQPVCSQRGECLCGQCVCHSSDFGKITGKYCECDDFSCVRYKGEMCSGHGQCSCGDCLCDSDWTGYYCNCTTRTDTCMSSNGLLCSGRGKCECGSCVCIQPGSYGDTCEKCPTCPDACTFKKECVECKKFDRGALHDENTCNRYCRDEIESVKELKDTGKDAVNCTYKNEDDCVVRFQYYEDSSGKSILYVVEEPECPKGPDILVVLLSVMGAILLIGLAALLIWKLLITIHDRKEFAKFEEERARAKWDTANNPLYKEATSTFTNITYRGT

PAC-1 (antibody)
PAC-1 binding (%) [1]: 3.4% | PAC-1 binding (%) [2]: 3.8% | PAC-1 binding (%) [3]: 3.7%

H12-PEG vesicle: DPPC/cholesterol vesicle containing H12-PEG-Glu2C18 alone (C([MAL‑PEG3400-Glu2C18])HHLGGAKQAGDV-OH; not fully specified; reading uncertain)
SC of platelets (%) [4]: 15.0 ± 5.0% | stability: retention of H12-PEG-Glu2C18 in vesicles (molar ratio of DPPC, cholesterol and H12-PEG-Glu2C18) [5]: not released from the phospholipid vesicles but stably maintained

CGGRGDF-LB: LB bound with a peptide having an RGD sequence (Arg-Gly-Asp) (also: bound to latex beads (LB)) [reference compound]
aggregation ratio with resting platelets [6]: 2.9 ± 1.3%

H12-LB: Dodecapeptide H12 (SEQ ID NO: 1, via Cys and SPDP linker) coupled to rHSA-adsorbed latex beads of 1 μm diameter (CHHLGGAKQAGDV; cyclised or stapled)
amplification of platelet adhesion versus control (LB) [7]: about 1.7 times | SC (surface coverage) of platelets on collagen surface ([7]; shear 150 s^-1, platelets 2.0×10^4/μl, beads 1.0×10^5 particles/μl, DiOC6-labeled platelets): 5.1±0.3% | aggregation ratio with resting platelets [6]: did not show increase | number of beads bound to collagen surface ([8]; platelet concentration 0.2×10^4/μl (FIG. 2)): inhibited | SC of FITC-labeled beads bound to collagen surface ([8]; platelets 2.0×10^4/μl, shear 150 s^-1 (FIG. 2)): gradually increased

H12-PEG(PEG) vesicle: DPPC/cholesterol vesicle containing PEG-Glu2C18 and H12-PEG-Glu2C18 (CHHLGGAKQAGDV-OH; not fully specified (residue 1))
SC of platelets on collagen surface ([4]; H12-PEG-Glu2C18 modification ratio 0.1 mol % or less (FIG. 6)): almost the same as the case of PEG vesicle | SC of platelets on collagen surface ([4]; H12-PEG-Glu2C18 modification ratio 0.3 mol % or more (FIG. 6)): the effect appears | SC of platelets (%) [4]: 17.3 ± 1.9% | PAC-1 binding (%) ([9]; fluorescence-labeled antibody with vesicles): 3.7 ± 0.4% | vesicle binding (%) ([9]; fluorescence-labeled vesicles): 1.4 ± 0.6%

CGGRGDF (also: bound to latex beads, coupling chemistry not described, Comparison conjugate) [CGGRGDF-LB [LB bound with a peptide having an RGD sequence (Arg-Gly-Asp)]]
aggregation ratio [10]: 2.9%

Reference: patent US20070059376A1, “Peptide conjugate” (priority 2003, published 2007)
